Like-named read-outs stand apart in the source and are kept apart here.
What was measured:
[1] = target: recombinant human NF-kappaB-inducing Kinase (NIK/MAP3K14) (Homo sapiens, UniProt Q99558); assay: Inhibition of auto-phosphorylation of recombinant human NIK/MAP3K14 activity (AlphaScreen); format: biochemical; settings: 25 microM ATP, averaged over all measurements on all batches
[2] = test system: P-IKKα levels in L363 (NIK translocated multiple myeloma) cells; assay: Effect of compounds on P-IKKα levels in L363 cells (Mesoscale sandwich immuno-assay); format: cell-based, human; settings: 2 hr treatment, averaged values, read-out: Inhibition of pIKKα_L-363 (IC50 (nM))
Method: Effect of Compounds on P-IKKα Levels in L363 (NIK Translocated Multiple Myeloma) Cells
All compounds tested were dissolved in DMSO and further dilutions were made in culture medium. Final DMSO concentration was 1% (v/v) in cell assays. The human L363 cells (ATCC) were cultured in RPMI 1640 medium supplemented with GlutaMax and 10% fetal calf serum (PAA). Cells were routinely maintained at densities of 0.2×10^6 cells per ml-1×10^6 cells per ml at 37° C. in a humidified 5% CO2 atmosphere. Cells were passaged twice a week splitting back to obtain the low density. Cells were seeded in 96 well plates (Nunc 167008) at 2×10^6 per ml media in a volume of 75 μl per well plus 25 μl 1 μg/ml recombinant human B-cell activating factor (BAFF/BLyS/TNFSF13B). Seeded cells were incubated at 37° C. in a humidified 5% CO2 atmosphere for 24 hr. Drugs and/or solvents were added (20 μl) to a final volume of 120 μl. Following 2 hr treatment plates were removed from the incubator and cell lysis was achieved by the addition of 30 μl 5× lysis buffer followed by shaking on a plate shaker at 4° C. for 10 min. At the end of this incubation lysed cells were centrifuged at 800×g for 20 min at 4° C. and the lysate was assessed for P-IKK levels by sandwich immuno-assay carried out in anti-rabbit antibody coated Mesoscale plates. Within an experiment, the results for each treatment were the mean of 2 replicate wells. For initial screening purposes, compounds were tested using an 8 point dilution curve (serial 1:3 dilutions). […] The blank incubation value was subtracted from all control and sample values. To determine the IC50 a sigmoidal curve was fitted to the plot of % inhibition of control P-IKKα levels versus Log10 compound concentration.

[3] = test system: JJN-3 (NIK translocated) multiple myeloma cells; assay: Antiproliferative activity on JJN-3 multiple myeloma cells (CellTiter-Glo); format: cell-based, human; settings: JJN-3 (NIK translocated) cells, 96 hr treatment, averaged values, read-out: JJN-3 Proliferation inhibition (IC50 (nM))
In short: (§1)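 Cells plated at 15000 (JJN3) or 20000 (KMS12BM) per well and treated 96 h at 37° C, 5% CO2, final DMSO 0.3%, 9-point 1:3 dilutions. Viability by CellTiter-Glo luminescence; time-zero blank subtracted, growth expressed as percent of untreated control.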

[4] = test system: KMS12-BM (NIK WT) multiple myeloma cells; assay: Antiproliferative activity on KMS12-BM multiple myeloma cells (CellTiter-Glo); format: cell-based, human; settings: 96 hr treatment, averaged values, read-out: KMS-12 Proliferation inhibition (IC50 (nM))
In short: as §1

Chain of recombinant human NF-kappaB-inducing Kinase (NIK/MAP3K14) (Q99558 whole entry): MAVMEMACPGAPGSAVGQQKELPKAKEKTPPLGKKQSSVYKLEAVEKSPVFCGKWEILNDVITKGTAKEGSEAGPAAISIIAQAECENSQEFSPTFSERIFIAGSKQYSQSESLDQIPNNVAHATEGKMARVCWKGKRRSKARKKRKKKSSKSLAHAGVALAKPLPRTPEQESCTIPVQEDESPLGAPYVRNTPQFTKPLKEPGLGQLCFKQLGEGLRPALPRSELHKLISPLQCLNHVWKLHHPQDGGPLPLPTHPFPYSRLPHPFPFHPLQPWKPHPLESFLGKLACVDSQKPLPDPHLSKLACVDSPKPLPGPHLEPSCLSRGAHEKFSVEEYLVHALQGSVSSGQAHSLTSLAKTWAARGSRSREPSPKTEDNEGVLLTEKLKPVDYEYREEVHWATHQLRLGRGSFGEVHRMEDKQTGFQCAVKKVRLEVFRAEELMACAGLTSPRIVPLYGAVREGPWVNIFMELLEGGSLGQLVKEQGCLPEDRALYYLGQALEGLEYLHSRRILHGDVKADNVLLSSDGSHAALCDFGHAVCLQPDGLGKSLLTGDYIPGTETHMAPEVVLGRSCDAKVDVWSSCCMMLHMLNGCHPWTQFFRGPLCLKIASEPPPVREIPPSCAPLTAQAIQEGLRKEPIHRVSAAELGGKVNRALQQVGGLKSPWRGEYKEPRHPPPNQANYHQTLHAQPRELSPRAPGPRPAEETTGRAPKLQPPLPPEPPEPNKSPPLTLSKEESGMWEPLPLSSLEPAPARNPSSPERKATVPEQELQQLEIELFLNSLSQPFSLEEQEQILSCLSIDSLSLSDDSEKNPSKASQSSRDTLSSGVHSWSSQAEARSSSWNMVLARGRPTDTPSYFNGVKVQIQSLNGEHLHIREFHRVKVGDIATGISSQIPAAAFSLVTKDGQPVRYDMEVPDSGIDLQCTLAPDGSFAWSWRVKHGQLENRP

SMILES | IC50 [1] [nM] | IC50 ([2]; Homo sapiens, L-363, 2 h) [nM] | IC50 ([3]; Homo sapiens, JJN-3, 96 h) [nM] | IC50 ([4]; Homo sapiens, KMS-12-BM, 96 h) [nM] | melting point [°C] | IC50 [2] [nM] | IC50 [3] [nM] | IC50 [4] [nM]
Cc1cc(Nc2nccc(-c3cc(C#N)c4c(c3)[C@@](C)(CO)CN4)n2)c(=O)n(CC(C)N2CCOCC2)c1 (mixture of isomers) [Compound 18i] | 0.9 | 4.9 | 49 | > 10000 | 208 | – | – | –
Cc1cc(Nc2nccc(-c3cc(C#N)c4c(c3)[C@@](C)(CO)CN4)n2)c(=O)n(CC(C)N2CCOCC2)c1 (single isomer, unassigned) [Compound 22i] | 3.4 | 2.1 | 33 | 9120 | 138 | – | – | –
Cc1cc(Nc2nccc(-c3cc(C#N)c4c(c3)[C@@](C)(CO)CN4)n2)c(=O)n(CC(C)N2CCOCC2)c1 (single isomer, unassigned) [Compound 23i] | 2.3 | – | – | – | 136 | 2.9 | 30 | > 10000
Cc1cc(Nc2nccc(-c3cc(C#N)c4c(c3)[C@@](C)(CO)CN4)n2)c(=O)n(CCN2CC(F)C2)c1 [Compound 1i] | 1.1 | 2.6 | 347 | 3890 | 149 | – | – | –
COCCNc1nc(OC)c(Nc2nccc(-c3cc(C#N)c4c(c3)C(C)(CO)CN4)n2)cc1Cl (stereo not shown) [Compound 2] | 13.2 | 21.4 | 74 | > 10000 | 230 | – | – | –
Cc1cc(Nc2nccc(-c3cc(C#N)c4c(c3)[C@@](C)(CO)CN4)n2)c(=O)n(CCN2CC(C)OC(C)C2)c1 (stereo partly shown) [Compound 2i] | 1.8 | 1.1 | 479 | 5500 | 135 | – | – | –
C[C@]1(CO)CNc2c(C#N)cc(-c3ccnc(Nc4cc(F)cn(CCN5CCOCC5)c4=O)n3)cc21 [Compound 3i] | 1.3 | 3.3 | ~1780 | > 10000 | 252 | – | – | –
Cc1cc(Nc2nccc(-c3cc(C#N)c4c(c3)[C@@](C)(CO)CN4)n2)c(=O)n(Cc2nccn2C)c1 [Compound 4i] | 1.3 | 8.9 | 316 | > 10000 | 235 | – | – | –
Cc1cc(Nc2nccc(-c3cc(C#N)c4c(c3)[C@@](C)(CO)CN4)n2)c(=O)n(Cc2nccn2C2CC2)c1 [Compound 6i] | 1 | 10 | 275 | 5130 | 194 | – | – | –
C[C@]1(CO)CNc2c(C#N)cc(-c3ccnc(Nc4ccc[nH]c4=O)n3)cc21 [Compound 8i] | 4.5 | 74.1 | 776 | > 10000 | > 250 | – | – | –
Cc1cc(Nc2nccc(-c3cc(C#N)c4c(c3)[C@@](C)(CO)CN4)n2)c(=O)n(C)c1 [Compound 9i] | 1 | 8.5 | 120 | > 10000 | 313 | – | – | –
CN(C)C(=O)Cn1cc(Cl)cc(Nc2nccc(-c3cc(C#N)c4c(c3)[C@@](C)(CO)CN4)n2)c1=O [Compound 11i] | 1.9 | 3.2 | ~1120 | > 10000 | 299 | – | – | –
CN(C)CCn1cc(Cl)cc(Nc2nccc(-c3cc(C#N)c4c(c3)[C@@](C)(CO)CN4)n2)c1=O [Compound 12i] | 1.1 | 0.9 | 18 | 813 | 198 | – | – | –
Cn1cc(Cl)cc(Nc2nccc(-c3cc(C#N)c4c(c3)[C@@](C)(CO)CN4)n2)c1=O [Compound 13i] | 1.9 | 0.9 | 31 | > 10000 | 306 | – | – | –
Cc1cc(Nc2nccc(-c3cc(C#N)c4c(c3)[C@@](C)(CO)CN4)n2)c(=O)n(CCN2CC(C)NC(C)C2)c1 (stereo partly shown) [Compound 16i] | 1.2 | 11 | 25 | > 10000 | 232 | – | – | –
Cc1cc(Nc2nccc(-c3cc(C#N)c4c(c3)[C@@](C)(CO)CN4)n2)c(=O)n(CCN2CC(F)(F)C2)c1 [Compound 17i] | 1.9 | 1.8 | 33 | > 10000 | 190 | – | – | –
Cc1cc(Nc2nccc(-c3cc(C#N)c4c(c3)[C@@](C)(CO)CN4)n2)c(=O)n(CCN2CCN(C)CC2)c1 [Compound 19i] | 0.6 | 2.5 | 25 | > 10000 | 148 | – | – | –
Cc1cc(Nc2nccc(-c3cc(C#N)c4c(c3)[C@@](C)(CO)CN4)n2)c(=O)n(CCN2CCCOCC2)c1 [Compound 20i] | 2.3 | 1.5 | 41 | > 10000 | 287 | – | – | –

Further lines, results first:

IC50 [1] [nM] | IC50 ([2]; Homo sapiens, L-363, 2 h) [nM] | IC50 ([3]; Homo sapiens, JJN-3, 96 h) [nM] | IC50 ([4]; Homo sapiens, KMS-12-BM, 96 h) [nM] | melting point [°C] | IC50 [2] [nM] | IC50 [3] [nM] | IC50 [4] [nM] | SMILES
3.8 | – | – | – | 204 | 67.6 | 69 | 1350 | CN1CCCC(COc2ncc(Cl)cc2Nc2nccc(-c3cc(C#N)c4c(c3)[C@@](C)(CO)CN4)n2)C1 (single isomer, unassigned) [Compound 55]
3.5 | – | – | – | 126 | ~7240 | 7 | ~148 | CN1CCCC(COc2ncc(Cl)cc2Nc2nccc(-c3cc(C#N)c4c(c3)[C@@](C)(CO)CN4)n2)C1 (single isomer, unassigned) [Compound 56]
8.5 | 13.8 | – | > 10000 | 154 | – | 135 | – | Cc1cnc(OCC2COCCN2C)c(Nc2nccc(-c3cc(C#N)c4c(c3)[C@@](C)(CO)CN4)n2)c1 (single isomer, unassigned) [Compound 148]
8.9 | – | – | – | 146 | 7.8 | 29 | > 10000 | Cc1cnc(OCC2COCCN2C)c(Nc2nccc(-c3cc(C#N)c4c(c3)[C@@](C)(CO)CN4)n2)c1 (single isomer, unassigned) [Compound 149]
5.5 | – | 66 | > 10000 | 114 | 13.8 | – | – | Cc1cnc(OCC2CN(C)CCO2)c(Nc2nccc(-c3cc(C#N)c4c(c3)[C@@](C)(CO)CN4)n2)c1 (single isomer, unassigned) [Compound 151]
23.4 | 5.5 | 32 | > 10000 | 120 | – | – | – | Cc1cc(Nc2nccc(-c3cc(C#N)c4c(c3)[C@@](C)(COC(=O)C(C)C)CN4)n2)c(=O)n(CCN2CC(C)OC(C)C2)c1 (stereo partly shown) [Compound 24i]
3 | 3.7 | 100 | > 10000 | 129 | – | – | – | Cc1cc(Nc2nccc(-c3cc(C#N)c4c(c3)[C@@](C)(CO)CN4)n2)c(=O)n(CC2(C)COC2)c1 [Compound 29i]
4.6 | 14.5 | – | – | 276 | – | – | – | Cc1cc(Nc2ncnc(-c3cc(C#N)c4c(c3)[C@@](C)(CO)CN4)n2)c(=O)n(C)c1 [Compound 30i]
3 | 4.7 | 28 | ~7940 | 234 | – | – | – | C[C@]1(CO)CNc2c(C#N)cc(-c3ccnc(Nc4cc(Cl)cnc4C4CC4)n3)cc21 [Compound 46]
25.7 | 229 | – | – | 150 | – | – | – | Cc1ncc(C(=O)N2CCN(C)CC2)cc1Nc1nccc(-c2cc(C#N)c3c(c2)[C@@](C)(CO)CN3)n1 [Compound 166]
6.5 | 4 | – | – | 199 | – | – | – | Cc1cc(Nc2nccc(-c3cc(C#N)c4c(c3)[C@@](C)(CO)CN4)n2)c(C)nc1OC1CCOCC1 [Compound 174]
339 | 617 | – | – | 143 to 145 | – | – | – | CC1(C)CNc2c(C#N)cc(-c3ccnc(Nc4cc(Cl)cnc4C(=O)N4CCC(O)C4)n3)cc21 (stereo not shown) [Compound 180]

Source: patent US11001569B2, “6-membered heteroaromatic substituted cyanoindoline derivatives as NIK inhibitors” (Janssen Pharmaceutica NV, priority 2016, dated 2021)
